Assay results: patent publication US5272151A, “Aminoacyl and oligopeptidyl derivatives of allopurinol exhibiting immunostimulatory activity, and pharmaceutical formulations containing these substances” (Sigma-Tau Industrie Farmaceutiche Riunite S.p.A., priority 1991, dated 1993)

System: rat blood granulocytes
Assay: In vitro-ex vivo chemotactic activity of rat blood granulocytes (modified Boyden chamber)
Conditions: for Chemotaxis (μm ± S.E.) induced: casein-induced migration; for Chemotaxis (μm ± S.E.) induced / Chemotaxis (μm ± S.E.) spontaneous: 25 mg/kg/d i.p. day -5 through day -1; for Chemotaxis (μm ± S.E.) spontaneous: spontaneous migration (Hank's medium)
Protocol: In vitro-ex vivo effects of ST 689 and ST 789 on the chemotactic activity of rat blood granulocytes.
Inbred male Fisher 344 rats (Charles River, Italy), ca. 6 months old, were used in experimental groups of 5 animals. Test animals received the compounds at dosage of 25 mg/kg daily from day -5 through day -1 relative to the day of blood sampling (day 0). The experimental procedure employed is described in Cates, L. K. et al., Modified Boyden chamber method of measuring polymorphonuclear leukocyte chemotaxis, in Leukocyte chemotaxis, Raven Press, New York, N.Y., 1978, p. 67.
Blood was sampled from decapitated animals that, after passage through heparinised gauze, was diluted 1/1 with dextran (1.5% in physiological solution) and allowed to sediment for 90 min. The granulocytes, extracted from whole blood by the usual methods; were brought to a concentration of 2×10^6 cells/mL in Hank's medium. They were then deposited on Millipore filters (3 μm) and placed in migration chambers. These chambers contained either Hank's medium for the evaluation of spontaneous migration, or casein (2 mL of a 5 mg/mL solution) for the evaluation of induced migration. After incubating the samples for 60 min at 37° C. with 5% CO2, the Millipore filters were removed, stained, and inserted between microscope slides. Microscopic observations were performed to determine the furthest distance (in μm) traversed in controls and experimental samples by 2 granulocytes within the rectangular viewing field. Granulocytic migration is expressed as the average value of 10 detailed observations on two filters prepared from each sample.

Compound | Increase of rat granulocyte chemotaxis, in words (25 mg/kg/d i.p.) | Chemotaxis (μm ± S.E.) induced | Chemotaxis (μm ± S.E.) spontaneous
O=c1[nH]cnc2c1cnn2CCCCCO [ST 689, 1,5-dihydro-1-(5-hydroxypentyl)-4H-pyrazolo-[3,4-d]-pyrimidin-4-one] | more active than ST 789 | 44.8 ± 1.40 μm | 14.40 ± 0.40 μm
N=C(N)NCCC[C@H](NC(=O)OCCCCCn1cnc2c(=O)[nH]cnc21)C(=O)O [ST 789, N-alfa-5-(hypoxanthin-9-yl)-pentyloxycarbonylarginine, reference compound] | – | 30.4 ± 2.30 μm | 10.01 ± 1.09 μm
